This note sets out measurements from patent US8883856B2, “Compositions and methods for the treatment of inflammatory diseases using topoisomerase inhibitors” (priority 2000, dated 2014).

Converted amounts (≈) assume the structure as drawn. Where two headings read alike, the source gives them in different places.

The test system of one test is caspase 3. Nature of the test: Caspase 3 activation in neutrophils (caspACE assay system). The class given is cell-based, human. From the text:
(§1) The inflammation associated with many forms of arthritis is thought to arise from the presence of large numbers of immune cells, such as neutrophils, in the synovial joints of humans. The extended inflammation associated with crystal induced arthritis arises from the interaction of neutrophils with crystals in the synovial joint. One reason the extended duration of the inflammation in this disease may be due to the inhibition of neutrophil apoptosis by crystals. This inhibition may result in the neutrophils remaining in the joint for extended periods. Compounds that overcome this crystal induced suppression of neutrophil apoptosis therefore allow the more rapid clearance of these cells from the joint with the appropriate abatement of inflammation. The process of apoptosis involves the endonuclease driven cleavage of DNA into fragments which may be visualized as a ladder of bands in an agarose gel electrophoresis experiment. Other assays that may be used include caspase 3 quantitation or measurements of cytoplasmic DNA concentration. […] Agents that inhibit caspase activation levels or reduce cytoplasmic DNA are pro-survival (potentially inflammatory) and agents that promote are pro-apoptotic and anti-inflammatory. The use of these methods and their role in neutrophil affected inflammation is described in detail in Tudan et al. J Rheumatol. 27 p 2463-72. 2000.
(§2) Methods: Agarose gel banding/laddering of 180 base pairs: Neutrophils were separated from fresh human blood by standard methods (dextran sedimentation and ficoll paque centrifugation) and suspended in buffer at a concentration of 1×10^6 cells/ml. The cells were then incubated with crystals of calcium pyrophosphate dihydrate (CPPD) for 1 hours at 37° C. The cells were then incubated with or without camptothecin (0.1 uM) for 4 hours at 37° C. Neutrophil aliquots (1×10^6 cells) from different conditions were resuspended in 480 μl of lysis buffer (0.6% SDS, 10 mM Tris, 1 mM EDTA (pH 7.0)) and after vigorous mixing were allowed to sit on ice for 20 min after addition of 120 μl of 5M NaCl. In caspase 3 and DNA fragmentation assays a milder detergent (Triton) was used to lyse only the plasma membrane of the cells so that cytoplasmic contents (caspase 3 or DNA fragments) could be assayed. Samples were sedimented at 14,000 rpm at 4° C. for 20 min. The pellet was dried and resuspended in phenol:chloroform. Four hundred fifty μl of the upper phase was added to a new tube, which was then charged with 950 μl of […] and held at −20° C. for 10 min. The DNA was sedimented at 14,000 rpm (4° C.) and carefully washed in 75% ethanol without disturbing the pellet. The DNA was dried at 37° C. and then resuspended in 20 μl sample buffer (50% TBE with 1 μl of 1 ng/ml RNase A (Pharmacia)). The samples were vortexed and allowed to stand at 37° C. for 10 min. Five μl of loading dye (20% Ficoll Paque (Pharmacia), 0.1% bromophenol blue, 0.1% xylene cyanole) was added. Electrophoresis was carried out in 2% agarose at 80 mA, and the gel was then stained with ethidium bromide (Pharmacia) and photographed under U.V. illumination.
Caspase 3 activation was assayed using a commercial kit for this enzyme (caspACE assay system, Promega Scientific) and cyotplasmic DNA was assayed using a commercial kit (Cell death detection ELISA-Boehringer—Mannheim).

In another test the test system is neutrophils. Nature of the test: Cytoplasmic DNA fragmentation in neutrophils (Cell death detection ELISA). The class given is cell-based, human.
From the text: as §1
as §2, with “The samples were vortexed and allowed to stand at 37° C. for 10 min. Five μl of loading dye (20% Ficoll Paque (Pharmacia), 0.1% bromophenol blue, 0.1% xylene cyanole) was added. Electrophoresis was carried out in 2% agarose at 80 mA, and the gel was then stained with ethidium bromide (Pharmacia) and photographed under U.V. illumination.” left out

Test [1] has as its system synoviocytes (HIG.82 rabbit). Nature of the test: MTT proliferation/cytotoxicity assay, synoviocytes. The test is classed as cell-based. Particulars: Oryctolagus cuniculus, 48 h, read-out: inhibitory concentration that gave 50% effect on proliferation (IC50), synoviocytes. As for the experimental part: (§3) Proliferation was determined using the MTT proliferation/cytotoxicity assay.
(§4) On day one, 1500-2000 smooth muscle cells (A7r5 rat embryonic thoracic aorta) or synoviocytes (HIG.82 rabbit) were plated per well on a 96-well plate, leaving the first column free of cells (blank). The plate was placed back into the 37° C., CO2 incubator. The following day camptothecin was added at various concentrations. No drugs were added to the first column (blank) and the second column (untreated column) for control. The cells were exposed for 24, 48, and 72 hours. At the end of the exposure period, 50 μl of dimethylthiazol diphenyltetrazolium bromide salt (MTT) dissolved in media was added and allowed to incubate for 4 hours at 37° C. The medium was then aspirated and 200 μl of dimethyl sulfoxide was added. The plate was agitated for 30 minutes and the absorbance read at 562 nm. The optical density measurement was converted to number of cells using a standard plot of optical density with known number of cells and cell viability was expressed as % growth (this value is the % of the control cells).

Test [2] relates to smooth muscle cells (A7r5 rat embryonic thoracic aorta). Nature of the test: MTT proliferation/cytotoxicity assay, smooth muscle cells. The test is classed as cell-based. Particulars: A7R5, 48 h, read-out: inhibitory concentration that gave 50% effect on proliferation (IC50), smooth muscle cells. As for the experimental part: as §3, §4
The next test concerns human neutrophils. Nature of the test: Neutrophil chemiluminescence (neutrophil activation). The class given is cell-based. The following applies: Homo sapiens, Neutrophil; activation by MSUM crystals; read-out: IC 50, inhibition of neutrophil chemiluminescence. As for the experimental part:
Freshly prepared human neutrophils were incubated with the compound followed by stimulation of the cells with either plasma opsonized CPPD crystals, the bacterial chemoattractant, fMLP or the phorbol ester, PMA. Stimulation (or activation) of the cells induced superoxide anion generation which could be measured by the emission of light (chemiluminescence). Inhibition of neutrophil function was then determined by inhibition of chemiluminescence. Hanks buffered salt solution (HBSS) pH 7.4 was used throughout the study. All chemicals were purchased from Sigma Chemical Co. (St. Louis, Mo.) unless otherwise stated. All procedures were performed at 37° C. unless otherwise stated. CPPD (triclinic) crystals were prepared and characterized as previously reported (Jackson J K et al., J Rheumatol, 24: 341-348, 1996). The size distribution of the crystals was approximately 33% less than […]. Opsonization of crystals was carried out using 50% heparinized plasma and concentrations of 50 mg of CPPD in 1 mL of 50% plasma. Crystals were incubated with diluted plasma for 30 min at 37° C., centrifuged at 1000×g, then washed in HBSS and recentrifuged. Neutrophils were prepared from freshly collected, human, citrated whole blood. Briefly, 400 mL of blood were mixed with 80 mL of 4% dextran T500 (Pharmacia LKB, Biotechnology AB Uppsala, Sweden) in HBSS and allowed to settle for 1 h. Plasma was collected continuously and 5 mL applied to 5 mL Ficoll Paque (Pharmacia) in 15 mL polypropylene tubes (Corning, N.Y.). Following centrifugation at 500×g for 30 min, the neutrophil pellets were washed free of erythrocytes by 20 s of hypotonic shock. Neutrophils were resuspended in HBSS, kept on ice and used for experiments within 3 h. Neutrophil viability and purity was always greater than 90%.
A stock solution of drug was diluted in DMSO to give various concentrations of drug. Equal volumes of these solutions were added to neutrophils at 5×10^6 cells per mL under mild vortexing to achieve final concentrations with a final DMSO concentration of 0.25%. This DMSO concentration found to have no effect on control cell responses. Cells were incubated for 15 minutes at 37° C. before addition to crystals, fMLP or PMA.
Chemiluminescence studies were performed at a cell concentration of 5×10^6 cells per mL in HBSS with CPPD (50 mg/mL). In all experiments 0.5 mL of cells were added to 25 mg of CPPD or 1 uM fMLP (and 0.5 uM cytochalasin B) or 0.5 uM PMA in 1.5 ml Eppendorf tubes. To the tubes were added 10 uL of luminol dissolved in 25% DMSO in HBSS to give a final concentration of 1 μM and the samples were mixed to initiate neutrophil activation. Chemiluminescence was monitored using an LKB Luminometer (Model 1250) at 37° C. with shaking immediately prior to measurements to resuspend the crystals. Control tubes contained cells, drug and luminol (crystals absent).

In a further test the test system is surgical adhesions. The class given is in vivo. The following applies: drug-loaded crosslinked HA films (camptothecin 2.5%, doxorubicin 2.5%, beta-lapachone 5%, curcumin 10%), rats. As for the experimental part:
The rat caecal-sidewall adhesion model was used to test efficacy of crosslinked hyaluroinc acid (HA) polymeric films loaded with one of the following compounds; camptothecin 2.5% loading (w/w to polymer), curcumin 10%, doxorubicin 2.5%, beta-lapachone at 5% or unloaded-no-drug control. Films of 2-2.5 cm^2 were prepared with each drug by the method described in example 10. ETO sterilized, and divided in half at the time of surgical implantation. Sham surgeries omitted the application of HA film as separate controls.
Sprague Dawley rats, 15 male and 15 female, weighing 250-400 g were anaesthetized with Halothane (5%) and maintained, by nose cone, on 1.5-2% Halothane. Surgeries were conducted under sterile conditions. The abdomen was shaved, scrubbed with an antiseptic wash, and opened at the linea alba with a 3 cm incision. A region of the abdominal cavity immediately opposite the large bowel was isolated with bowel clamps, and a #11 scalpel blade was used to score a section of the transversus muscle, describing a rectangle 1×1.5 cm. The muscle was stripped from the peritoneal sidewall with forceps, and minor bleeding was arrested by tamponade. The large bowel was then externalized with sterile swabs, and caecal contents evacuated into the large bowel. Both surfaces of the caecum were stroked, 45 times on each side, with a #10 scalpel blade to produce erythema and punctated bleeding. Each stroke spanned the caecal diameter (approximately 1 cm), and extended along 1.5 cm of the caecal extremity. In only one case did this abrasion procedure cause sustained bleeding requiring ligation. Following 90 blade strokes, the integrity of the tissue was confirmed, and caecum and large bowel were replaced in the pelvis.
The film was laid over the rectangular sidewall abrasion (except in the case of sham surgeries), covering the area of damaged tissue. The abraded caecum, relocated in its previous orientation, was than overlaid such that the entire sidewall wound and film were covered by it. Four tacking sutures were placed at the outer extremities of the abraded area of the caecum securing it to the intact peritoneal sidewall immediately outside the rectangular wound area. The abdomen was closed in two layers, and antibiotics administered intramuscularly before the animal regained consciousness.
. Adhesions over, and adjacent to the caecum were rated according to the following findings: 0: No adhesions connecting caecum to sidewall wound; 1: Filmy or stranded were separable by blunt dissection; 2: Cohesive adhesions attaching the caecum to the sidewall were separable by aggressive blunt dissection; 3: Adhesions inseparable without cutting, or without tearing/damaging caecum. Fractions were assigned where a variety of ratings seemed applicable.

As for `O=C1c2c(O)ccc(O)c2C(=O)c2c(NCCNCCO)ccc(NCCNCCO)c21` [mitoxantrone], in the test on caspase 3, the “caspase 3 activation in neutrophils” value is “induced an increase in the activation of caspase 3 levels”. Besides, in the test with neutrophils, the “cytoplasmic DNA fragments in neutrophils” value is “significant increase in cytoplasmic DNA”.
In the case of `O=C1C=CC(=O)c2c(O)cccc21` [juglone], the figures for the IC50 (in test [1]; in test [2]; in the test on human neutrophils) were 4.3 µM, 2 µM and 0.5 to 1 µg/mL (≈ 2.87 to 5.74 µM), respectively.
As to `COC(=O)[C@@H]1c2cc3c(c(O)c2[C@@H](O[C@@H]2O[C@@H](C)[C@H](OC)[C@@](C)(OC)[C@H]2OC)C[C@]1(C)O)C(=O)c1c(O)cc2c(c1C3=O)O[C@@H]1O[C@@]2(C)[C@H](O)[C@@H](N(C)C)[C@@H]1O` [nogalamycin], the “caspase 3 activation in neutrophils” value in the test on caspase 3 is recorded as “induced an increase in the activation of caspase 3 levels”.
On to `COc1cc(/C=C/C(=O)CC(=O)/C=C/c2ccc(O)c(OC)c2)ccc1O` [curcumin], for which the “surgical adhesion formation, in words” value with surgical adhesions was “no inhibition of adhesion formation”; with surgical adhesions (listed as circumin), “no inhibitory effect on surgical adhesion formation in rats”.
